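96-well plates; 48 h exposure; 5 concentrations. Endpoints by linear interpolation between flanking doses. Not reached: highest tested concentration assigned. GI50 is the concentration that inhibits growth by half.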 Activity calls are given as the source filed them. Cut-off read from the data, not from the text of the source: active = GI50 up to about 1.1 µM and inactive = higher.
Assays:
Assay in all cases: growth of human tumour cells (NCI), 48 h
[1] = test system: 786-0
[2] = test system: A498
[3] = test system: A549
[4] = test system: ACHN
[5] = test system: BT-549
[6] = test system: CCRF-CEM
[7] = test system: COLO 205
[8] = test system: DU-145
[9] = test system: EKVX
[10] = test system: HCC 2998
[11] = test system: HCT-116
[12] = test system: HCT-15
[13] = test system: HL-60
[14] = test system: HOP-62
[15] = test system: HOP-92
[16] = test system: HT-29
[17] = test system: Hs-578T
[18] = test system: IGROV-1
[19] = test system: K562
[20] = test system: KM12
[21] = test system: LOX IMVI
[22] = test system: M14
[23] = test system: MCF7
[24] = test system: MDA-MB-231
[25] = test system: MDA-MB-435
[26] = test system: MDA-N
[27] = test system: MOLT-4
[28] = test system: NCI-H226
[29] = test system: NCI-H23
[30] = test system: NCI-H522
[31] = test system: NCI/ADR-RES
[32] = test system: OVCAR-3
[33] = test system: OVCAR-5
[34] = test system: OVCAR-8
[35] = test system: PC-3
[36] = test system: RPMI-8226
[37] = test system: RXF 393
[38] = test system: SF-268
[39] = test system: SF-295
[40] = test system: SF-539
[41] = test system: SK-MEL-2
[42] = test system: SK-MEL-5
[43] = test system: SN12C
[44] = test system: SNB-19
[45] = test system: SNB-75
[46] = test system: SR
[47] = test system: SW-620
[48] = test system: T47D
[49] = test system: TK-10
[50] = test system: U-251
[51] = test system: UACC-257
[52] = test system: UACC-62
[53] = test system: UO-31
[54] = test system: CAKI-1
[55] = test system: Malme-3M
[56] = test system: NCI-H460
[57] = test system: OVCAR-4
[58] = test system: SK-MEL-28
[59] = test system: SK-OV-3

For O=C(O)CCC(NC(=O)c1ccc(Nc2nc3ccc(C(F)(F)F)cc3nc2C(=O)O)cc1)C(=O)O (centres undefined), the GI50 [1] was > 100 µM (inactive), the GI50 [2] was > 100 µM (inactive) and the GI50 [3] was > 100 µM (inactive). For the same compound, the GI50 [4] was > 100 µM (inactive), the GI50 [5] was > 100 µM (inactive) and the GI50 [6] was > 100 µM (inactive). For the same compound, the GI50 [7] was > 100 µM (inactive), the GI50 [8] was > 100 µM (inactive) and the GI50 [9] was > 100 µM (inactive). For the same compound, the GI50 [10] was > 100 µM (inactive), the GI50 [11] was > 100 µM (inactive) and the GI50 [12] was over 100 µM. The GI50 [13] was > 100 µM (inactive), the GI50 [14] was > 100 µM (inactive) and the GI50 [15] was > 100 µM (inactive). For the same compound, the GI50 [16] was > 100 µM (inactive), the GI50 [17] was > 100 µM (inactive) and the GI50 [18] was > 100 µM (inactive). The GI50 [19] was > 100 µM (inactive), the GI50 [20] was > 100 µM (inactive) and the GI50 [21] was > 100 µM (inactive). The GI50 [22] was > 100 µM (inactive), the GI50 [23] was > 100 µM (inactive) and the GI50 [24] was > 100 µM (inactive). For the same compound, the GI50 [25] was > 100 µM (inactive), the GI50 [26] was > 100 µM (inactive) and the GI50 [27] was > 100 µM (inactive). The GI50 [28] was > 100 µM (inactive), the GI50 [29] was > 100 µM (inactive) and the GI50 [30] was > 100 µM (inactive). For the same compound, the GI50 [31] was > 100 µM (inactive), the GI50 [32] was 69.8 µM (inactive) and the GI50 [33] was > 100 µM (inactive). The GI50 [34] was > 100 µM (inactive), the GI50 [35] was > 100 µM (inactive) and the GI50 [36] was > 100 µM (inactive). For the same compound, the GI50 [37] was > 100 µM (inactive), the GI50 [38] was > 100 µM (inactive) and the GI50 [39] was > 100 µM (inactive). For the same compound, the GI50 [40] was > 100 µM (inactive), the GI50 [41] was > 100 µM (inactive) and the GI50 [42] was > 100 µM (inactive). For the same compound, the GI50 [43] was > 100 µM (inactive), the GI50 [44] was > 100 µM (inactive) and the GI50 [45] was > 100 µM (inactive). For the same compound, the GI50 [46] was > 100 µM (inactive), the GI50 [47] was > 100 µM (inactive) and the GI50 [48] was > 100 µM (inactive). For the same compound, the GI50 [49] was > 100 µM (inactive), the GI50 [50] was > 100 µM (inactive) and the GI50 [51] was > 100 µM (inactive). For the same compound, the GI50 [52] was > 100 µM (inactive) and the GI50 [53] was > 100 µM (inactive).

O=C1N(C2CCCCC2)C(=O)N1C1CCCCC1 was tested, and the GI50 [1] was 0.362 µM (active), the GI50 [2] was 0.16 µM (active) and the GI50 [3] was 0.245 µM (active). For the same compound, the GI50 [4] was 0.0562 µM (active), the GI50 [5] was 0.0272 µM (active) and the GI50 [54] was 1.04 µM (active). The GI50 [6] was 0.04 µM (active), the GI50 [7] was 0.467 µM (active) and the GI50 [8] was 0.126 µM (active). The GI50 [9] was 8.61 µM (inactive), the GI50 [10] was 1.16 µM (inactive) and the GI50 [11] was 0.113 µM (active). The GI50 [12] was 0.257 µM, the GI50 [13] was < 0.01 µM (active) and the GI50 [14] was 0.425 µM (active). The GI50 [15] was 0.149 µM (active), the GI50 [16] was 0.701 µM (active) and the GI50 [17] was 0.0409 µM (active). The GI50 [18] was 17.5 µM (inactive), the GI50 [19] was 0.0875 µM (active) and the GI50 [20] was 0.285 µM (active). For the same compound, the GI50 [21] was 0.209 µM (active), the GI50 [22] was 1.24 µM (inactive) and the GI50 [23] was 0.723 µM (active). For the same compound, the GI50 [24] was 1.33 µM (inactive), the GI50 [25] was 2.08 µM (inactive) and the GI50 [26] was 3.97 µM (inactive). The GI50 [27] was 0.0132 µM (active), the GI50 [55] was 1.99 µM (inactive) and the GI50 [28] was 0.416 µM (active). The GI50 [29] was 0.83 µM (active), the GI50 [56] was 0.321 µM (active) and the GI50 [30] was 0.328 µM (active). The GI50 [31] was 0.133 µM (active), the GI50 [32] was 1.87 µM (inactive) and the GI50 [57] was 1.68 µM (inactive). For the same compound, the GI50 [33] was 1.83 µM (inactive), the GI50 [34] was 0.0929 µM (active) and the GI50 [35] was 0.233 µM (active). For the same compound, the GI50 [38] was 0.75 µM (active), the GI50 [39] was 0.29 µM (active) and the GI50 [40] was 1.22 µM (inactive). For the same compound, the GI50 [58] was 1.19 µM (inactive), the GI50 [41] was 1.49 µM (inactive) and the GI50 [42] was 0.439 µM (active). For the same compound, the GI50 [59] was 5.15 µM (inactive), the GI50 [43] was 0.272 µM (active) and the GI50 [44] was 1.46 µM (inactive). The GI50 [45] was 0.142 µM (active), the GI50 [46] was 0.232 µM (active) and the GI50 [47] was 1.95 µM (inactive). The GI50 [48] was 0.56 µM (active), the GI50 [49] was 2.34 µM (inactive) and the GI50 [50] was 0.388 µM (active). The GI50 [51] was 0.679 µM (active), the GI50 [52] was 0.21 µM (active) and the GI50 [53] was < 0.0105 µM (active).

In the case of Clc1ccc(/C=C/c2nc(-c3ccc(Cl)cc3)cn3c2nc2ccccc23)cc1, the GI50 [1] is reported as > 100 µM (inactive), the GI50 [2] is reported as > 100 µM (inactive) and the GI50 [3] is reported as > 100 µM (inactive). The GI50 [4] was > 100 µM (inactive), the GI50 [5] was > 100 µM (inactive) and the GI50 [6] was > 100 µM (inactive). The GI50 [7] was > 100 µM (inactive), the GI50 [8] was > 100 µM (inactive) and the GI50 [9] was > 100 µM (inactive). For the same compound, the GI50 [10] was > 100 µM (inactive), the GI50 [11] was > 100 µM (inactive) and the GI50 [12] was over 100 µM. The GI50 [13] was > 100 µM (inactive), the GI50 [14] was > 100 µM (inactive) and the GI50 [15] was > 100 µM (inactive). The GI50 [16] was > 100 µM (inactive), the GI50 [17] was > 100 µM (inactive) and the GI50 [18] was 55.7 µM (inactive). The GI50 [19] was > 100 µM (inactive), the GI50 [20] was > 100 µM (inactive) and the GI50 [21] was > 100 µM (inactive). For the same compound, the GI50 [22] was > 100 µM (inactive), the GI50 [23] was 50.5 µM (inactive) and the GI50 [24] was > 100 µM (inactive). For the same compound, the GI50 [25] was > 100 µM (inactive), the GI50 [26] was > 100 µM (inactive) and the GI50 [27] was 45.1 µM (inactive). For the same compound, the GI50 [55] was > 100 µM (inactive), the GI50 [28] was > 100 µM (inactive) and the GI50 [29] was > 100 µM (inactive). The GI50 [56] was > 100 µM (inactive), the GI50 [31] was > 100 µM (inactive) and the GI50 [32] was > 100 µM (inactive). For the same compound, the GI50 [57] was > 100 µM (inactive), the GI50 [33] was > 100 µM (inactive) and the GI50 [35] was > 100 µM (inactive). The GI50 [36] was > 100 µM (inactive), the GI50 [37] was > 100 µM (inactive) and the GI50 [38] was > 100 µM (inactive). The GI50 [40] was > 100 µM (inactive), the GI50 [58] was > 100 µM (inactive) and the GI50 [41] was > 100 µM (inactive). The GI50 [42] was > 100 µM (inactive), the GI50 [59] was > 100 µM (inactive) and the GI50 [43] was > 100 µM (inactive). The GI50 [44] was > 100 µM (inactive), the GI50 [46] was > 100 µM (inactive) and the GI50 [47] was > 100 µM (inactive). The GI50 [48] was 88.7 µM (inactive), the GI50 [49] was > 100 µM (inactive) and the GI50 [50] was > 100 µM (inactive). For the same compound, the GI50 [51] was > 100 µM (inactive), the GI50 [52] was > 100 µM (inactive) and the GI50 [53] was > 100 µM (inactive).
